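Briefly, cells in 96-well plates were exposed to five compound concentrations for 48 h, and endpoints were estimated by linear interpolation. Abbreviation: GI50, concentration required for 50% inhibition of growth.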 Active and inactive are the calls of the source. Cut-off read from the data, not from the text of the source: active = GI50 up to about 1.1 µM and inactive = higher.
Experiments:
Test in all cases: inhibition of tumour cell growth, NCI panel, 48 h
DLD-1 = test system: DLD-1
DMS-273 = test system: DMS-273
HOP-18 = test system: HOP-18
KM-20L2 = test system: KM-20L2
M19-MEL = test system: M19-MEL
RXF 631 = test system: RXF 631
SNB-78 = test system: SNB-78
XF498 = test system: XF498
DMS-114 = test system: DMS-114

CN(C)CCC(/C=C/c1ccccc1)=N\Nc1ccc(Cl)c(Cl)c1
GI50 (DLD-1): 3.49 µM (inactive)
GI50 (DMS-273): 2.36 µM (inactive)
GI50 (HOP-18): 2.67 µM (inactive)
GI50 (KM-20L2): 2.02 µM (inactive)
GI50 (M19-MEL): 4.31 µM (inactive)
GI50 (RXF 631): 2.37 µM (inactive)
GI50 (SNB-78): 3.58 µM (inactive)
GI50 (XF498): 2.3 µM (inactive)

O=C(/C=C/c1ccc(Cl)cc1)c1ccncc1
GI50 (DLD-1): 41 µM (inactive)
GI50 (DMS-114): 48.1 µM (inactive)
GI50 (DMS-273): 69.3 µM (inactive)
GI50 (HOP-18): > 100 µM (inactive)
GI50 (KM-20L2): 35.9 µM (inactive)
GI50 (M19-MEL): 26.9 µM (inactive)
GI50 (RXF 631): 31.8 µM (inactive)
GI50 (SNB-78): > 100 µM (inactive)

Brc1ccccc1/C=N\C12CC3CC(CC(C3)C1)C2
GI50 (DLD-1): 1.41 µM (inactive)
GI50 (DMS-114): 5.77 µM (inactive)
GI50 (DMS-273): 11.3 µM (inactive)
GI50 (HOP-18): > 100 µM (inactive)
GI50 (KM-20L2): > 100 µM (inactive)
GI50 (M19-MEL): > 76.6 µM (inactive)
GI50 (RXF 631): > 79.4 µM (inactive)
GI50 (SNB-78): > 91.4 µM (inactive)
GI50 (XF498): > 100 µM (inactive)

NC(=O)c1csc(C2C=CC(CO)O2)n1 (stereo unspecified)
GI50 (DMS-114): > 100 µM (inactive)
GI50 (DMS-273): > 100 µM (inactive)
GI50 (HOP-18): > 100 µM (inactive)
GI50 (KM-20L2): > 100 µM (inactive)
GI50 (RXF 631): > 100 µM (inactive)
GI50 (SNB-78): > 100 µM (inactive)
GI50 (XF498): > 100 µM (inactive)

Nc1nc2c(c(=O)[n-]1)[n+](CCO)cn2C1OC(CO)C(O)C1O (stereo unspecified)
GI50 (DLD-1): > 100 µM (inactive)
GI50 (DMS-114): > 100 µM (inactive)
GI50 (DMS-273): > 100 µM (inactive)
GI50 (HOP-18): > 100 µM (inactive)
GI50 (KM-20L2): > 100 µM (inactive)
GI50 (M19-MEL): > 100 µM (inactive)
GI50 (RXF 631): > 100 µM (inactive)
GI50 (SNB-78): > 100 µM (inactive)
GI50 (XF498): > 100 µM (inactive)

C=C(C(=C)P(=S)(C(C)C)C(C)C)P(=S)(C(C)C)C(C)C
GI50 (DLD-1): > 100 µM (inactive)
GI50 (DMS-114): > 100 µM (inactive)
GI50 (DMS-273): > 100 µM (inactive)
GI50 (KM-20L2): > 100 µM (inactive)
GI50 (M19-MEL): > 100 µM (inactive)
GI50 (RXF 631): > 100 µM (inactive)
GI50 (SNB-78): > 100 µM (inactive)
GI50 (XF498): > 100 µM (inactive)

O=C(CC1(O)C(=O)Nc2c(Cl)ccc(Cl)c21)c1ccc(Cl)cc1 (stereo unspecified)
GI50 (DLD-1): 38 µM (inactive)
GI50 (DMS-114): 24.1 µM (inactive)
GI50 (DMS-273): 27 µM (inactive)
GI50 (HOP-18): 44.2 µM (inactive)
GI50 (KM-20L2): 38.1 µM (inactive)
GI50 (M19-MEL): 18.4 µM (inactive)
GI50 (RXF 631): 23.8 µM (inactive)
GI50 (SNB-78): 49.1 µM (inactive)
GI50 (XF498): 19.1 µM (inactive)

O=C(O)c1c2c(cc3c(=O)c4ccccc4[nH]c13)CCCC2
GI50 (DMS-273): 83 µM (inactive)
GI50 (HOP-18): > 100 µM (inactive)
GI50 (KM-20L2): > 100 µM (inactive)
GI50 (M19-MEL): > 100 µM (inactive)
GI50 (RXF 631): > 100 µM (inactive)
GI50 (SNB-78): > 100 µM (inactive)
GI50 (XF498): > 100 µM (inactive)

CC(C)c1ccccc1NC(=O)CCc1n[nH]c(=S)o1
GI50 (DLD-1): > 54.5 µM (inactive)
GI50 (DMS-114): > 67 µM (inactive)
GI50 (DMS-273): > 54.3 µM (inactive)
GI50 (HOP-18): > 100 µM (inactive)
GI50 (KM-20L2): > 100 µM (inactive)
GI50 (M19-MEL): > 100 µM (inactive)
GI50 (RXF 631): > 100 µM (inactive)
GI50 (SNB-78): > 100 µM (inactive)
GI50 (XF498): > 100 µM (inactive)

O=[N+]([O-])c1cccc(/C=N/C23CC4CC(CC(C4)C2)C3)c1
GI50 (DLD-1): > 100 µM (inactive)
GI50 (DMS-114): > 100 µM (inactive)
GI50 (DMS-273): > 100 µM (inactive)
GI50 (HOP-18): > 100 µM (inactive)
GI50 (KM-20L2): > 100 µM (inactive)
GI50 (M19-MEL): > 100 µM (inactive)
GI50 (SNB-78): > 100 µM (inactive)
GI50 (XF498): > 100 µM (inactive)

Cc1nc2ccccc2[s+]c1-c1cnc(NC#N)nc1C(=O)Nc1cccc(Cl)c1
GI50 (DLD-1): > 100 µM (inactive)
GI50 (DMS-114): > 100 µM (inactive)
GI50 (DMS-273): > 100 µM (inactive)
GI50 (HOP-18): > 100 µM (inactive)
GI50 (KM-20L2): > 100 µM (inactive)
GI50 (M19-MEL): > 100 µM (inactive)
GI50 (SNB-78): > 100 µM (inactive)

COC(=O)C1=C(O)c2cc(-c3ccccc3)c(-c3ccccc3)c(C#N)c2NC(=O)C1
GI50 (DLD-1): 6.3 µM (inactive)
GI50 (DMS-114): 29.6 µM (inactive)
GI50 (DMS-273): 2.13 µM (inactive)
GI50 (HOP-18): < 0.01 µM (active)
GI50 (KM-20L2): 13.1 µM (inactive)
GI50 (M19-MEL): 14.5 µM (inactive)
GI50 (RXF 631): 3.56 µM (inactive)
GI50 (SNB-78): 14 µM (inactive)
GI50 (XF498): 49 µM (inactive)

O=S(=O)(N/N=C/c1ccc(Cl)cc1Cl)c1ccccc1
GI50 (DLD-1): > 100 µM (inactive)
GI50 (DMS-114): 29.4 µM (inactive)
GI50 (DMS-273): 66.7 µM (inactive)
GI50 (HOP-18): 57.5 µM (inactive)
GI50 (KM-20L2): 85.1 µM (inactive)
GI50 (M19-MEL): > 100 µM (inactive)
GI50 (RXF 631): 61.1 µM (inactive)
GI50 (SNB-78): > 100 µM (inactive)
GI50 (XF498): 78.7 µM (inactive)

Cc1cc(C)nc(NS(=O)(=O)c2ccc(Nc3c4ccccc4nc4c(C(=O)NCCN(C)C)cccc34)cc2)n1
GI50 (DLD-1): 5.15 µM (inactive)
GI50 (DMS-114): 1.04 µM (active)
GI50 (DMS-273): 0.813 µM (active)
GI50 (KM-20L2): 6.61 µM (inactive)
GI50 (M19-MEL): 3.44 µM (inactive)
GI50 (RXF 631): 0.986 µM (active)
GI50 (SNB-78): 11.5 µM (inactive)
GI50 (XF498): 13.7 µM (inactive)

Cc1cc2c(C)n[nH]c2c(C(=O)O)c1C
GI50 (DLD-1): > 100 µM (inactive)
GI50 (DMS-114): > 100 µM (inactive)
GI50 (DMS-273): > 100 µM (inactive)
GI50 (KM-20L2): > 100 µM (inactive)
GI50 (M19-MEL): > 100 µM (inactive)
GI50 (SNB-78): 36.2 µM (inactive)
GI50 (XF498): > 100 µM (inactive)

N#CC(C(=O)C(=O)C(C#N)c1ccc(Br)cc1)c1ccc(Br)cc1 (stereo unspecified)
GI50 (DLD-1): 14.3 µM (inactive)
GI50 (DMS-114): 12.1 µM (inactive)
GI50 (DMS-273): 12.1 µM (inactive)
GI50 (HOP-18): 11.4 µM (inactive)
GI50 (KM-20L2): 12.2 µM (inactive)
GI50 (M19-MEL): 12.1 µM (inactive)
GI50 (SNB-78): 12.2 µM (inactive)

CCCNCCCCC(NC(C)=O)C(=O)NCc1ccccc1 (stereo unspecified)
GI50 (DLD-1): > 100 µM (inactive)
GI50 (DMS-114): > 100 µM (inactive)
GI50 (DMS-273): > 100 µM (inactive)
GI50 (KM-20L2): > 100 µM (inactive)
GI50 (M19-MEL): > 100 µM (inactive)
GI50 (RXF 631): > 100 µM (inactive)
GI50 (SNB-78): > 100 µM (inactive)
GI50 (XF498): > 100 µM (inactive)

C/C(CC(=O)Nc1ccccc1)=N\NC(N)=S
GI50 (DLD-1): > 100 µM (inactive)
GI50 (DMS-114): > 100 µM (inactive)
GI50 (DMS-273): > 100 µM (inactive)
GI50 (KM-20L2): > 100 µM (inactive)
GI50 (M19-MEL): > 100 µM (inactive)
GI50 (SNB-78): > 100 µM (inactive)
GI50 (XF498): > 100 µM (inactive)

O=C(N/C(=C\c1ccc(/C=C(\NC(=O)c2ccccc2)c2nc3ccccc3[nH]2)cc1)c1nc2ccccc2[nH]1)c1ccccc1
GI50 (DLD-1): > 100 µM (inactive)
GI50 (DMS-114): > 100 µM (inactive)
GI50 (DMS-273): 52.8 µM (inactive)
GI50 (HOP-18): > 100 µM (inactive)
GI50 (KM-20L2): > 100 µM (inactive)
GI50 (M19-MEL): > 100 µM (inactive)
GI50 (SNB-78): > 100 µM (inactive)
GI50 (XF498): > 100 µM (inactive)

CSC(C1c2ccccc2N(c2ccc(C)cc2)C2=NC(=O)N(C)C(=O)C21Cl)S(=O)(=O)c1ccc(C)cc1 (stereo unspecified)
GI50 (DLD-1): 16.3 µM (inactive)
GI50 (DMS-114): 19 µM (inactive)
GI50 (DMS-273): 20 µM (inactive)
GI50 (KM-20L2): 21.7 µM (inactive)
GI50 (M19-MEL): 23.7 µM (inactive)
GI50 (SNB-78): 27.9 µM (inactive)
GI50 (XF498): 30.8 µM (inactive)

COC1CC(n2cc(F)c(N)nc2=O)OC1CO (stereo unspecified)
GI50 (DLD-1): > 100 µM (inactive)
GI50 (DMS-114): > 100 µM (inactive)
GI50 (DMS-273): > 100 µM (inactive)
GI50 (HOP-18): 49.4 µM (inactive)
GI50 (KM-20L2): > 100 µM (inactive)
GI50 (RXF 631): > 100 µM (inactive)
GI50 (SNB-78): > 100 µM (inactive)
GI50 (XF498): > 100 µM (inactive)

COc1cc(CCc2ccncc2)cc(OC)c1OC
GI50 (DLD-1): > 100 µM (inactive)
GI50 (DMS-114): > 100 µM (inactive)
GI50 (DMS-273): > 100 µM (inactive)
GI50 (HOP-18): > 100 µM (inactive)
GI50 (KM-20L2): > 100 µM (inactive)
GI50 (M19-MEL): > 100 µM (inactive)
GI50 (RXF 631): > 100 µM (inactive)
GI50 (SNB-78): > 100 µM (inactive)
GI50 (XF498): > 100 µM (inactive)

From ChEMBL document CHEMBL1201862, “PubChem BioAssay data set” (2004)
